Reference: patent US9994536B2, “Compounds and methods of treating neurological disorders” (TORREY PINES INSTITUTE FOR MOLECULAR STUDIES, priority 2014, dated 2018)

Tested on: sAPPα released from 7WD10 cells (CHO cells stably expressing APP751)
Experiment: AlphaLISA sAPPα release assay (pilot HTS)
Type: cell-based
Conditions: 5 μM, 7WD10 cells, 24 h
Description: (1). The pilot screen was performed using five 384 well plates. […] FDA approved oncology set was screened at 10 μM final assay concentration, while thiazole derivatives were screened at 5 μM. Seven hits from thiazole derivatives were identified using Ave+3SD rule (45) as a nominal cutoff for hit determination (FIG. 1.1 (bottom)). The hits represented a novel piperazine thiazole chemotype (FIG. 1.2).
Pilot screen of AlphaLISA sAPPα release assay. 8 μL of assay media (DMEM supplemented with 10% FBS and 1× Penicillin/Streptomycin) containing 20,000 cells were added to all wells of the assay plate, except column 1 where only media was added. Plates were incubated for 4 h at 37° C., 5% CO2, 95% RH after which 80 nL of test compounds in DMSO or DMSO alone were added to respective wells using a pin tool device (VP Scientific, San Diego). After 24 h of incubation at 37° C., 5% CO2, 95% RH, sAPPα AlphaLISA beads were added in 10 μL of buffer, equilibrated for 1 h, and AlphaLISA signal was measured using a Biotek H4 Synergy microplate reader (Biotek Inc). Three parameters were calculated on a per-plate basis: (a) the signal-to-background ratio (S/B); (b) the coefficient for variation [CV; CV=(standard deviation/mean)×100)] for all compound test wells; and (c) the Z′-factor [31]. Nominally active compounds from the pilot screen were determined using mean plus 3 times the standard deviation (Mean+3SD) was used as the cut-off.
In the absence of known pharmacological agents capable of inducing an increase of sAPPα release, we tested a small molecule (FIG. 2.4A insert, compound 1 in [2]) shown to decrease Aβ release. It was shown that decrease of Aβ release could be accompanied by the increase of soluble APPα, which has a neuroprotective effect. Compound 1 was tested using 20,000 cells/well in the range of 1.2-100 μM using 3-fold serial dilutions and 24 h incubation as an assay endpoint. Increase of sAPPα release was observed only in wells where 100 μM of compound 1 was added either with or without FBS (FIG. 2.4A). Viability of cells was also tested in the presence of 1.2-100 μM of compound 1 to ascertain that the increase of sAPPα release is not due to excessive cell death. Consistent with the above described results, cells were less viable in the absence of FBS. In the presence of 1.2-33 μM of compound 1, cells were approximately 10% less viable than untreated control either with or without FBS (FIG. 2.4B).
To evaluate the ability of the assay to identify compounds that increase the release of sAPPα a pilot screen was conducted using FDA approved oncology set (n=101) and TPIMS heterocycles library (n=700). The pilot screen was performed using five 384 well plates. […]

O=C(Cc1ccccc1)N[C@H](CNc1nc(CN2CCN(C(=O)Cc3ccccc3)CC2)cs1)c1ccccc1 [THPI-244]
increase of Alpha signal (sAPPα release): ~2 fold
